From patent US20040024055A1, “Pharmaceutical composition containing the exract of saururus chinensis baill useful as an anticancer agent and a process for the preparation thereof” (priority 2000, published 2004)
Converted amounts (≈) assume the structure as drawn.

Assays:
[1] = system: PC-3 prostate cancer cell line; test: MTT analysis, anticancer activity; format: cell-based, human; conditions: 48 hr
Protocol: (§1) To be specific, SK-Hep-1 cell, which is liver cancer cell line, was added to 96-well microplate (Falcon, USA) with the concentration of 3×10^5 cells/ml by 100 μl per well. Each extracted and separated substance dissolved in DMSO was added to the well by 100 μl for the final concentration to be from 50 μg/ml to 0.0244 μg/ml, with 200 μl of final volume. Each cell was cultured for 48 hr in a culture medium of 37° C. and 5% CO2. After cultivation, 20 μl of phosphate buffer solution containing 5 mg/ml of MTT (3-[4,5-dimethylthiazol-2-yl]-2,5-diphenyltetrazoliumbromide, Sigma Co.) reagent was added to each well, and then cultured for 4 hr. After taking 100 μl of supernant from each culture medium, 100 μl of 0.04N hydrochloric acid-isopropanol was added. After letting alone overnight, absorbance was measured at 560 nm using automatic Eliza detector (Molecular Divices Corp., USA). Anticancer activity of each extracted and separated substance was calculated from the absorbance value by Equation 1 and was expressed in terms of cell.
(§2) Average Existence Rate(%)=(Absorbance of Treated Group)/(Absorbance of Control Group)×100

[2] = system: BT-549; test: MTT analysis, anticancer activity; format: cell-based, human; conditions: 10 μg/ml sample
[3] = system: ME-180; test: MTT analysis, anticancer activity; format: cell-based, human; conditions: 10 μg/ml sample
[4] = system: SK-BR-3; test: MTT analysis, anticancer activity; format: cell-based, human; conditions: 48 hr
[5] = system: DU-145 prostate cancer cell line; test: MTT analysis, anticancer activity; format: cell-based, human; conditions: 48 hr
Protocol: as §1, §2

[6] = system: 293; test: MTT analysis, cytotoxicity against normal cell line; format: cell-based, human; conditions: 10 μg/ml sample
[7] = system: HS-578T; test: MTT analysis, anticancer activity; format: cell-based, human; conditions: 10 μg/ml sample
[8] = system: SK-N-SH; test: MTT analysis, anticancer activity; format: cell-based, human; conditions: 48 hr
[9] = system: KATO-III; test: MTT analysis, anticancer activity; format: cell-based, human
[10] = system: CPAE; test: MTT analysis, cytotoxicity against normal cell line; format: cell-based, bovine; conditions: 10 μg/ml sample
[11] = system: HT-29; test: MTT analysis, anticancer activity; format: cell-based, human; conditions: 10 μg/ml sample
[12] = system: SK-MEL-28; test: MTT analysis, anticancer activity; format: cell-based, human; conditions: 48 hr
[13] = system: NCI-H69; test: MTT analysis, anticancer activity; format: cell-based, human; conditions: 10 μg/ml sample
[14] = system: A431; test: MTT analysis, anticancer activity; format: cell-based, human; conditions: 48 hr
[15] = system: HT1080; test: MTT analysis, anticancer activity; format: cell-based, human; conditions: 48 hr
[16] = system: HS-746T; test: MTT analysis, anticancer activity; format: cell-based, human; conditions: 10 μg/ml sample
[17] = system: NIH-3T3; test: MTT analysis, cytotoxicity against normal cell line; format: cell-based, mouse; conditions: 10 μg/ml sample
[18] = Solubility; format: physicochemical
[19] = system: LoVo; test: MTT analysis, anticancer activity; format: cell-based, human; conditions: 10 μg/ml sample
[20] = system: T98G; test: MTT analysis, anticancer activity; format: cell-based, human; conditions: 48 hr
[21] = system: T-47D; test: MTT analysis, anticancer activity; format: cell-based, human; conditions: 48 hr
[22] = system: Hep-2; test: MTT analysis, anticancer activity; format: cell-based, human
[23] = system: HS27; test: MTT analysis, cytotoxicity against normal cell line; format: cell-based, human; conditions: 10 μg/ml sample
[24] = system: HS683; test: MTT analysis, anticancer activity; format: cell-based, human; conditions: 48 hr
[25] = system: SK-OV-3; test: MTT analysis, anticancer activity; format: cell-based, human; conditions: 10 μg/ml sample
[26] = system: CHO; test: MTT analysis, cytotoxicity against normal cell line; format: cell-based, Chinese hamster; conditions: 10 μg/ml sample
[27] = system: SK-Hep-1 liver cancer cell line; test: MTT analysis, anticancer activity; format: cell-based, human; conditions: for IC50 SK-Hep-1: 48 hr
Protocol: as §1, §2

[28] = system: BT-20; test: MTT analysis, anticancer activity; format: cell-based, human; conditions: 48 hr
[29] = system: 3T3-L1; test: MTT analysis, cytotoxicity against normal cell line; format: cell-based, mouse; conditions: 10 μg/ml sample
[30] = system: MCF-7; test: MTT analysis, anticancer activity; format: cell-based, human
[31] = system: HeLa; test: MTT analysis, anticancer activity; format: cell-based, human; conditions: 48 hr

Structure (SMILES)	IC50 PC-3 [1] [µg/mL]	Existence rate class, BT-549 (in IC50 table) [2]	Existence rate class, ME-180 (in IC50 table) [3]	IC50 SK-BR-3 [4] [µg/mL]	IC50 DU-145 [5] [µg/mL]	Existence rate class, 293 (in IC50 table) [6]	Existence rate class, HS-578T (in IC50 table) [7]	IC50 SK-N-SH [8] [µg/mL]	Existence rate class, CPAE (in IC50 table) [10]	Existence rate class, HT-29 (in IC50 table) [11]	IC50 SK-MEL-28 [12] [µg/mL]	Existence rate class, NCI-H69 (in IC50 table) [13]	IC50 A431 [14] [µg/mL]	IC50 HT1080 [15] [µg/mL]	Existence rate class, HS-746T (in IC50 table) [16]	Existence rate class, NIH-3T3 (in IC50 table) [17]	Solubility in methanol, ethanol, ethyl acetate, chloroform and dimethylsulfoxide (DMSO) [18]	Solubility in water, acetone, ether and hexane [18]	Existence rate class, LoVo (in IC50 table) [19]	IC50 T98G [20] [µg/mL]	other results
COc1ccc(C(O)C(C)Oc2ccc(C3OC(c4ccc(OC(C)[C@@H](O)c5ccc(OC)c(OC)c5)c(OC)c4)C(C)C3C)cc2OC)cc1OC (single isomer, unassigned) [HNP-98701A, epi-manassantin A]	0.1249 (≈ 0.17 µM)	*^a (Existence rate larger than 60% for 10 μg/ml sample)	* (Existence rate larger than 60% for 10 μg/ml sample)	0.1698 (≈ 0.232 µM)	0.0537 (≈ 0.0733 µM)	*^a (Existence rate larger than 60% for 10 μg/ml sample)	N.E.^b (Not effective; existence rate larger than 90% for 10 μg/ml sample)	1.2849 (≈ 1.75 µM)	* (Existence rate larger than 60% for 10 μg/ml sample)	* (Existence rate larger than 60% for 10 μg/ml sample)	0.2544 (≈ 0.347 µM)	* (Existence rate larger than 60% for 10 μg/ml sample)	0.4903 (≈ 0.669 µM)	0.4267 (≈ 0.582 µM)	* (Existence rate larger than 60% for 10 μg/ml sample)	N.E. (Not effective; existence rate larger than 90% for 10 μg/ml sample)	highly soluble	insoluble	* (Existence rate larger than 60% for 10 μg/ml sample)	0.2470 (≈ 0.337 µM)	IC50 ([9]; Homo sapiens, KATO III, 48 h, read-out: IC50 KATO-III, MTT, 48 hr): 0.617 µg/mL (≈ 0.842 µM); IC50 T-47D [21]: 0.0400 µg/mL (≈ 0.0546 µM); IC50 ([22]; Homo sapiens, HEp-2, 48 h, read-out: IC50 Hep-2, MTT, 48 hr): 0.0406 µg/mL (≈ 0.0554 µM); Existence rate class, HS27 (in IC50 table) [23]: N.E. (Not effective; existence rate larger than 90% for 10 μg/ml sample); IC50 HS683 [24]: 0.5561 µg/mL (≈ 0.759 µM); Existence rate class, SK-OV-3 (in IC50 table) [25]: N.E. (Not effective; existence rate larger than 90% for 10 μg/ml sample); Existence rate class, CHO (in IC50 table) [26]: * (Existence rate larger than 60% for 10 μg/ml sample); IC50 SK-Hep-1 [27]: 0.0795 µg/mL (≈ 0.108 µM); IC50 BT-20 [28]: 0.0996 µg/mL (≈ 0.136 µM); Existence rate class, 3T3-L1 (in IC50 table) [29]: N.E.^b (Not effective; existence rate larger than 90% for 10 μg/ml sample); IC50 ([30]; Homo sapiens, MCF7, 48 h, read-out: IC50 MCF-7): > 10 µg/mL; IC50 HeLa [31]: 0.4233 µg/mL (≈ 0.578 µM)
COc1ccc(C(O)C(C)Oc2ccc(C3OC(c4ccc(OC(C)[C@@H](O)c5ccc(OC)c(OC)c5)c(OC)c4)C(C)C3C)cc2OC)cc1OC (single isomer, unassigned) [HNP-98701B]	0.0695 (≈ 0.0948 µM)	* (Existence rate larger than 60% for 10 μg/ml sample)	* (Existence rate larger than 60% for 10 μg/ml sample)	0.0866 (≈ 0.118 µM)	0.0184 (≈ 0.0251 µM)	* (Existence rate larger than 60% for 10 μg/ml sample)	N.E. (Not effective; existence rate larger than 90% for 10 μg/ml sample)	0.4314 (≈ 0.589 µM)	* (Existence rate larger than 60% for 10 μg/ml sample)	* (Existence rate larger than 60% for 10 μg/ml sample)	0.1123 (≈ 0.153 µM)	* (Existence rate larger than 60% for 10 μg/ml sample)	0.2344 (≈ 0.32 µM)	0.1882 (≈ 0.257 µM)	* (Existence rate larger than 60% for 10 μg/ml sample)	N.E. (Not effective; existence rate larger than 90% for 10 μg/ml sample)	highly soluble	insoluble	* (Existence rate larger than 60% for 10 μg/ml sample)	0.1003 (≈ 0.137 µM)	IC50 KATO-III ([9]; MTT, 48 hr): 0.4477 µg/mL (≈ 0.611 µM); IC50 T-47D [21]: 0.0167 µg/mL (≈ 0.0228 µM); IC50 Hep-2 ([22]; MTT, 48 hr): 0.0329 µg/mL (≈ 0.0449 µM); Existence rate class, HS27 (in IC50 table) [23]: N.E. (Not effective; existence rate larger than 90% for 10 μg/ml sample); IC50 HS683 [24]: 0.2325 µg/mL (≈ 0.317 µM); Existence rate class, SK-OV-3 (in IC50 table) [25]: N.E. (Not effective; existence rate larger than 90% for 10 μg/ml sample); Existence rate class, CHO (in IC50 table) [26]: * (Existence rate larger than 60% for 10 μg/ml sample); IC50 SK-Hep-1 [27]: 0.0388 µg/mL (≈ 0.0529 µM); IC50 BT-20 [28]: 0.0292 µg/mL (≈ 0.0398 µM); Existence rate class, 3T3-L1 (in IC50 table) [29]: N.E. (Not effective; existence rate larger than 90% for 10 μg/ml sample); IC50 MCF-7 ([30]; MTT, 48 hr): >10 µg/mL; IC50 HeLa [31]: 0.1680 µg/mL (≈ 0.229 µM)
O=c1[nH]cc(F)c(=O)[nH]1 [5-FU, 5-fluorouracil]	–	–	–	–	–	–	–	–	–	–	–	–	–	–	–	–	–	–	–	–	IC50 ([27]; Homo sapiens, SK-HEP1, 48 hr): > 50 µg/mL
